From PubChem BioAssay AID256 (DTP/NCI, 2004)
Several values for one entry are separate records, joined by “and”; a condition that tells them apart may be missing. Equal entries are not always repeated. Toxic doses and inconclusive results are not listed.

System: CD2F1 mice, L1210 leukemia ip, survival T/C
Assay: NCI In Vivo Anticancer Drug Screen. Data for tumor model L1210 Leukemia (intraperitoneal) in CD2F1 (CDF1) mice
Conditions: higher = longer survival
In short: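 Antitumor effect is scored in animals hosting a serially transplanted tumor. Values compare compound-dosed animals against vehicle-only controls as a simple quotient.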

[1] = endpoint: mean survival time, dose: 100.0 mg/kg/injection, schedule: Q01DX001 (ip), vehicle: saline
[2] = endpoint: mean survival time, dose: 200.0 mg/kg/injection, schedule: Q01DX001 (ip), vehicle: saline

Q: For `O=C(NCCCCCCCCCCNC(=O)Nc1ccc(C2=NCCCN2)cc1)Nc1ccc(C2=NCCCN2)cc1`, which T/C (endpoint: mean survival time, dose: 5.0 mg/kg/injection, schedule: Q01DX009 (ip), vehicle: saline) is on record?
A: 103 % of control

Q: And the T/C (endpoint: mean survival time, dose: 8.0 mg/kg/injection, schedule: Q01DX009 (ip), vehicle: saline)?
A: 117 % of control

Q: What about the T/C (endpoint: mean survival time, dose: 19.0 mg/kg/injection, schedule: Q01DX009 (ip), vehicle: saline) of the same molecule?
A: 121 % of control

Q: What does the source list for `COC(=O)C1C2CCc3cc(OC)ccc3C2CC(=O)C1(C)C(=O)OC` (centres undefined)?
A: T/C (endpoint: mean survival time, dose: 100.0 mg/kg/injection, schedule: Q04DX003 (sc), vehicle: steriod suspending solution): 103 % of control; T/C (endpoint: mean survival time, dose: 200.0 mg/kg/injection, schedule: Q04DX003 (sc), vehicle: steriod suspending solution): 95 % of control; T/C (endpoint: mean survival time, dose: 400.0 mg/kg/injection, schedule: Q04DX003 (sc), vehicle: steriod suspending solution): 104 % of control

Q: For `CCN(CC)CC#CCCCCN(CC)CC`, which T/C (endpoint: mean survival time, dose: 25.0 mg/kg/injection, schedule: Q01DX009 (ip), vehicle: saline with Tween-80) is on record?
A: 101 % of control

Q: And the T/C (endpoint: mean survival time, dose: 25.0 mg/kg/injection, schedule: Q04DX003 (ip), vehicle: saline)?
A: 96 % of control

Q: What about the T/C (endpoint: mean survival time, dose: 50.0 mg/kg/injection, schedule: Q01DX009 (ip), vehicle: saline with Tween-80) of the same molecule?
A: 95 % of control

Q: What about the T/C (endpoint: mean survival time, dose: 50.0 mg/kg/injection, schedule: Q04DX003 (ip), vehicle: saline) of the same molecule?
A: 94 % of control

Q: What about the T/C (endpoint: mean survival time, dose: 100.0 mg/kg/injection, schedule: Q01DX009 (ip), vehicle: saline with Tween-80) of the same molecule?
A: 93 % of control

Q: And the T/C (endpoint: mean survival time, dose: 100.0 mg/kg/injection, schedule: Q04DX003 (ip), vehicle: saline with Tween-80)?
A: 94 % of control

Q: What about the T/C (endpoint: mean survival time, dose: 100.0 mg/kg/injection, schedule: Q04DX003 (ip), vehicle: saline) of the same molecule?
A: 94 % of control

Q: `NC(=O)n1ccnc1` was tested. Which T/C (endpoint: mean survival time, dose: 50.0 mg/kg/injection, schedule: Q01DX001 (ip), vehicle: saline) did it give?
A: 96 % of control

Q: What about the T/C [1] of the same molecule?
A: 98 % of control

Q: What about the T/C [2] of the same molecule?
A: 108 % of control

Q: With `COC(=O)/C=C/CNC(C)C` as the molecule, how does the T/C (endpoint: mean survival time, dose: 12.5 mg/kg/injection, schedule: Q01DX009 (ip), vehicle: water) read?
A: 93 % of control

Q: What about the T/C (endpoint: mean survival time, dose: 25.0 mg/kg/injection, schedule: Q01DX009 (ip), vehicle: water) of the same molecule?
A: 95 % of control

Q: What about the T/C (endpoint: mean survival time, dose: 50.0 mg/kg/injection, schedule: Q01DX009 (ip), vehicle: water) of the same molecule?
A: 96 % of control

Q: What about the T/C (endpoint: mean survival time, dose: 100.0 mg/kg/injection, schedule: Q01DX009 (ip), vehicle: water) of the same molecule?
A: 96 % of control

Q: And the T/C (endpoint: mean survival time, dose: 200.0 mg/kg/injection, schedule: Q01DX009 (ip), vehicle: water)?
A: 101 % of control

Q: Which T/C (endpoint: mean survival time, dose: 50.0 mg/kg/injection, schedule: Q01DX009 (ip), vehicle: saline) does the source give for `O=c1n[n+]([O-])ccn1C1OC(CO)C(O)C1O` (centres undefined) here?
A: 107 % of control

Q: What about the T/C (endpoint: mean survival time, dose: 100.0 mg/kg/injection, schedule: Q01DX009 (ip), vehicle: saline) of the same molecule?
A: 120 % of control and 121 % of control

Q: And the T/C (endpoint: mean survival time, dose: 300.0 mg/kg/injection, schedule: Q01DX009 (ip), vehicle: saline)?
A: 157 % of control and 173 % of control

Q: And the T/C (endpoint: mean survival time, dose: 400.0 mg/kg/injection, schedule: Q01DX009 (ip), vehicle: saline)?
A: 150 % of control

Q: And the T/C (endpoint: mean survival time, dose: 600.0 mg/kg/injection, schedule: Q01DX009 (ip), vehicle: saline)?
A: 91 % of control

Q: What about the T/C (endpoint: median survival time, dose: 200.0 mg/kg/injection, schedule: Q01DX009 (ip), vehicle: saline) of the same molecule?
A: 150 % of control

Q: And the T/C (endpoint: median survival time, dose: 288.0 mg/kg/injection, schedule: Q01DX009 (ip), vehicle: saline)?
A: 161 % of control

Q: What about the T/C (endpoint: median survival time, dose: 300.0 mg/kg/injection, schedule: Q01DX009 (ip), vehicle: saline) of the same molecule?
A: 174 % of control

Q: What about the T/C (endpoint: median survival time, dose: 480.0 mg/kg/injection, schedule: Q01DX009 (ip), vehicle: saline) of the same molecule?
A: 180 % of control

Q: What does the source list for `OCC1OC(Oc2ccccc2)C(O)C1O` (centres undefined)?
A: T/C (endpoint: mean survival time, dose: 75.0 mg/kg/injection, schedule: Q01DX001 (ip), vehicle: saline): 93 % of control; T/C (endpoint: mean survival time, dose: 150.0 mg/kg/injection, schedule: Q01DX001 (ip), vehicle: saline): 98 % of control; T/C (endpoint: mean survival time, dose: 300.0 mg/kg/injection, schedule: Q01DX001 (ip), vehicle: saline): 98 % of control

Q: For `Cc1ccc(SSc2ccc(C)cc2)cc1`, which T/C [1] is on record?
A: 100 % of control

Q: And the T/C [2]?
A: 100 % of control

Q: And the T/C (endpoint: mean survival time, dose: 400.0 mg/kg/injection, schedule: Q01DX001 (ip), vehicle: saline)?
A: 91 % of control

Q: For `Nc1nc(=O)n(CCCOc2ccccc2NC(=O)Nc2cccc(S(=O)(=O)F)c2)cc1-c1ccc(Cl)c(Cl)c1`, which T/C (endpoint: mean survival time, dose: 75.0 mg/kg/injection, schedule: Q01DX001 (ip), vehicle: saline with Tween-80) is on record?
A: 95 % of control

Q: And the T/C (endpoint: mean survival time, dose: 150.0 mg/kg/injection, schedule: Q01DX001 (ip), vehicle: saline with Tween-80)?
A: 95 % of control

Q: And the T/C (endpoint: mean survival time, dose: 300.0 mg/kg/injection, schedule: Q01DX001 (ip), vehicle: saline with Tween-80)?
A: 101 % of control
